Measured values as given in patent US12629374B2, “Antimalarial agents” (Merck Sharp & Dohme LLC, priority 2020, dated 2026).
Structures can show the parent of a compound that is named as a salt. Where two headings read alike, the source gives them in different places.

Test system: ring stage parasites
Assay: Parasite growth potency assay, 72 hours, LDH readout
Format: cell-based
Conditions: parasite growth measured by LDH assay after 72 hours at 37° C., 0.7% rings, 2% haematocrit, read-out: EC50
Summary of the method: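 Parasite growth was quantified by LDH assay after a −80 °C freeze-thaw. Before that, compound was incubated for 72 h at 37 °C under humidified gas with ring-stage cultures adjusted to 0.7% parasitemia and 2% haematocrit in serum- and albumax-supplemented RPMI-Hepes.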

Structure (SMILES) | EC50 (72 h) [nM] | other results
CCC12CCCCCCC3COc4ccccc4C3NC(=O)c3cccc(c3)CN(C(=N)N1)C(=O)C2 (single isomer, unassigned) [Example 120C, (26-ethyl-8,29-dioxo-17-oxa-1,9,27-triazapentacyclo[24.2.2.13,7.010,19. 011,16]hentriaconta-3,5,7(31),11(16),12,14-hexaen-28-ylidene)ammonium; 2,2,2-trifluoroacetate] |  | EC50: 21.9 nM
CCC1(CC)CC(=O)N(Cc2cccc(C(=O)NC3CC(C)(C)Oc4ccccc43)c2)C(=N)N1 (single isomer, unassigned) [Example 51B, [1-[[3-[(2,2-dimethylchroman-4-yl)carbamoyl]phenyl]methyl]-4,4-diethyl-6-oxo-hexahydropyrimidin-2-ylidene]ammonium; 2,2,2-trifluoroacetate] |  | EC50 (trifluoroacetate): 0.5 nM
CCC1(CC)CC(=O)N([C@H](CCS(C)(=O)=O)c2cccc(C(=O)N[C@@H]3c4ccccc4C[C@@]3(C)O)c2)C(=N)N1 [Example 154A, 3-[1-(4,4-diethyl-2-imino-6-oxo-hexahydropyrimidin-1-yl)-3-methylsulfonyl-propyl]-N-[(1R,2R)-2-hydroxy-2-methyl-indan-1-yl]benzamide] | 54 | 
CCC1(CC)CC(=O)N([C@H](C)c2cccc(C(=O)N[C@@H]3c4ccccc4C[C@H]3O)c2)C(=N)N1 [Example 33, [4,4-diethyl-1-[1-[3-[[(1R,2R)-2-hydroxyindan-1-yl]carbamoyl]phenyl]ethyl]-6-oxo-hexahydropyrimidin-2-ylidene]ammonium; 2,2,2-trifluoroacetate] | 2.8 | 
CCC1(CC)CC(=O)N([C@H](CCOC)c2cc(F)cc(C(=O)NC3c4ccccc4OC3(C)COC)c2)C(=N)N1 (single isomer, unassigned) [Example 176C, trifluoroacetate] |  | EC50 (trifluoroacetate): 98.9 nM
COCC[C@H](c1cccc(C(=O)N[C@@H]2c3ccccc3C[C@@]2(C)O)c1)N1C(=N)NC(C)(C)CC1=O [Example 166A, N-[(1R,2R)-2-hydroxy-2-methyl-indan-1-yl]-3-[(1R)-1-(2-imino-4,4-dimethyl-6-oxo-hexahydropyrimidin-1-yl)-3-methoxy-propyl]benzamide] |  | EC50: 52.1 nM
CCC1(CC)CC(=O)N([C@H](Cc2ccccc2)c2cccc(C(=O)N[C@H]3CCOc4ccccc43)c2)C(=N)N1 [Example 40, [1-[1-[3-[[(4S)-chroman-4-yl]carbamoyl]phenyl]-2-phenyl-ethyl]-4,4-diethyl-6-oxo-hexahydropyrimidin-2-ylidene]ammonium; 2,2,2-trifluoroacetate] | 9.7 | 
CCC1(CC)CC(=O)N([C@H](CCOC(F)F)c2cccc(C(=O)N[C@@H]3c4ccccc4OC(C)(C)[C@H]3O)c2)C(=N)N1 [Example 159, [1-[3-(difluoromethoxy)-1-[3-[[(3S,4R)-3-hydroxy-2,2-dimethyl-chroman-4-yl]carbamoyl]phenyl]propyl]-4,4-diethyl-6-oxo-hexahydropyrimidin-2-ylidene]ammonium; 2,2,2-trifluoroacetate] | 0.8 | 
CC1(C)CC(=O)N(C(CC(F)(F)F)c2cccc(C(=O)N[C@@H]3c4ccccc4C[C@H]3O)c2)C(=N)N1 (stereo partly drawn) [Example 224, N-[(1R,2R)-2-hydroxyindan-1-yl]-3-[3,3,3-trifluoro-1-(2-imino-4,4-dimethyl-6-oxo-hexahydropyrimidin-1-yl)propyl]benzamide] | 15.5 | 
CC1(C)CC(=O)N(Cc2cc(F)cc(C(=O)N[C@@H]3c4ccccc4OC(C)(C)[C@H]3O)c2)C(=N)N1 [Example 183, [1-[[3-fluoro-5-[[(3S,4R)-3-hydroxy-2,2-dimethyl-chroman-4-yl]carbamoyl]phenyl]methyl]-4,4-dimethyl-6-oxo-hexahydropyrimidin-2-ylidene]ammonium; 2,2,2-trifluoroacetate] | 9.1 | 
CC1(C)CC(=O)N(Cc2cc(F)cc(C(=O)N[C@@H]3c4cc(F)ccc4OC(C)(C)[C@H]3O)c2)C(=N)N1 (stereo in doubt) [Example 197, [1-[[3-fluoro-5-[(6-fluoro-3-hydroxy-2,2-dimethyl-chroman-4-yl)carbamoyl]phenyl]methyl]-4,4-dimethyl-6-oxo-hexahydropyrimidin-2-ylidene]ammonium; 2,2,2-trifluoroacetate] | 3.4 | 
CCC1(CC)CC(=O)N([C@H](C)c2cccc(C(=O)N[C@@H]3c4ccccc4OC(C)(C)[C@@]3(C)O)c2)C(=N)N1 [Example 228, 3-[(1R)-1-(4,4-diethyl-2-imino-6-oxo-hexahydropyrimidin-1-yl)ethyl]-N-[(3S,4R)-3-hydroxy-2,2,3-trimethyl-chroman-4-yl]benzamide] | 0.34 | 
CCC1(CC)CC(=O)N([C@H](CCO)c2cccc(C(=O)N[C@H]3CCOc4ccccc43)c2)C(=N)N1 [Example 59, [1-[1-[3-[[(4S)-chroman-4-yl]carbamoyl]phenyl]-3-hydroxy-propyl]-4,4-diethyl-6-oxo-hexahydropyrimidin-2-ylidene]ammonium; 2,2,2-trifluoroacetate] | 4.7 | 
CCC[C@H](c1cccc(C(=O)N[C@H]2CC3(CCC3)Oc3ccccc32)c1)N1C(=N)NC(CC)(CC)CC1=O (stereo in doubt) [Example 212B, [4,4-diethyl-6-oxo-1-[(1R)-1-[3-[[(4R)-spiro[chromane-2,1′-cyclobutane]-4-yl]carbamoyl]phenyl]butyl]hexahydropyrimidin-2-ylidene]ammonium; 2,2,2-trifluoroacetate] | 0.9 | 
CC1(C)CC(=O)N(Cc2cccc(C(=O)N[C@@H]3c4ccccc4OC(C)(C)C3(C)O)c2)C(=N)N1 (stereo in doubt) [Example 185, N-(3-hydroxy-2,2,3-trimethyl-chroman-4-yl)-3-[(2-imino-4,4-dimethyl-6-oxo-hexahydropyrimidin-1-yl)methyl]benzamide] | 62.5 | 
CC#CCC[C@H](c1cncc(C(=O)N[C@H]2CC(C)(C)Oc3ccccc32)c1)N1C(=N)NC(CC)(CC)CC1=O [Example 111, [1-[1-[5-[[(4S)-2,2-dimethylchroman-4-yl]carbamoyl]pyridin-1-ium-3-yl]hex-4-ynyl]-4,4-diethyl-6-oxo-hexahydropyrimidin-2-ylidene]ammonium; 2,2,2-trifluoroacetate] | 0.4 | 
CCC1(CC)CC(=O)N([C@@H](CC(C)C)c2cccc(C(=O)N[C@H]3CCOc4ccccc43)c2)C(=N)N1 [Example 14B, [1-[1-[3-[[(4S)-chroman-4-yl]carbamoyl]phenyl]-3-methyl-butyl]-4,4-diethyl-6-oxo-hexahydropyrimidin-2-ylidene]ammonium; 2,2,2-trifluoroacetate] | 55 | 
COCC[C@H](c1cccc(C(=O)N[C@@H]2c3ccccc3CC2(O)C(F)(F)F)c1)N1C(=N)NC(C)(C)CC1=O (stereo partly drawn) [Example 188, [1-[(1R)-1-[3-[[2-hydroxy-2-(trifluoromethyl)indan-1-yl]carbamoyl]phenyl]-3-methoxy-propyl]-4,4-dimethyl-6-oxo-hexahydropyrimidin-2-ylidene]ammonium; 2,2,2-trifluoroacetate] | 7.3 | 
N=C1N[C@@](CC2CC2)(c2ccccc2)CC(=O)N1Cc1cccc(C(=O)N[C@H]2CCOc3ccccc32)c1 [Example 6A, [(4R)-1-[[3-[[(4S)-chroman-4-yl]carbamoyl]phenyl]methyl]-4-(cyclopropylmethyl)-6-oxo-4-phenyl-hexahydropyrimidin-2-ylidene]ammonium; 2,2,2-trifluoroacetate] | 58.8 | 
C#CCC[C@H](c1cncc(C(=O)N[C@H]2CC(C)(C)Oc3ccccc32)c1)N1C(=N)N[C@](C)(C(C)C)CC1=O [Example 114A, [(4S)-1-[1-[5-[[(4S)-2,2-dimethylchroman-4-yl]carbamoyl]pyridin-1-ium-3-yl]pent-4-ynyl]-4-isopropyl-4-methyl-6-oxo-hexahydropyrimidin-2-ylidene]ammonium; 2,2,2-trifluoroacetate] | 0.3 | 
CCC1(CC)CC(=O)N(Cc2cccc(C(=O)N[C@@H]3c4ccccc4C(F)(F)C3O)c2)C(=N)N1 (stereo in doubt) [Example 190, [1-[[3-[(3,3-difluoro-2-hydroxy-indan-1-yl)carbamoyl]phenyl]methyl]-4,4-diethyl-6-oxo-hexahydropyrimidin-2-ylidene]ammonium; 2,2,2-trifluoroacetate] | 6.6 | 
CCC1(CC)CC(=O)N(Cc2cccc(C(=O)N[C@@H]3c4ccccc4OC(C)(C)C3(C)O)c2)C(=N)N1 (stereo in doubt) [Example 184, 3-[(4,4-diethyl-2-imino-6-oxo-hexahydropyrimidin-1-yl)methyl]-N-(3-hydroxy-2,2,3-trimethyl-chroman-4-yl)benzamide] | 1.5 | 
CCC1(CC)CC(=O)N(C(CCOC)c2ccc(C(F)(F)F)c(C(=O)N[C@@H]3c4ccccc4OC(C)(C)[C@H]3O)c2)C(=N)N1 (stereo partly drawn) [Example 246, 5-[1-(4,4-diethyl-2-imino-6-oxo-hexahydropyrimidin-1-yl)-3-methoxy-propyl]-N-[(3S,4R)-3-hydroxy-2,2-dimethyl-chroman-4-yl]-2-(trifluoromethyl)benzamide] | 1.74 | 
CC[C@]1(C(C)C)CC(=O)N(Cc2cc(F)cc(C(=O)N[C@H]3CCOc4ccccc43)c2)C(=N)N1 [Example 44, [(4R)-1-[[3-[[(4S)-chroman-4-yl]carbamoyl]-5-fluoro-phenyl]methyl]-4-ethyl-4-isopropyl-6-oxo-hexahydropyrimidin-2-ylidene]ammonium; 2,2,2-trifluoroacetate] | 2.6 | 
CCC1(CC)CC(=O)N(Cc2cc(F)cc(C(=O)N[C@@H]3c4cc(F)ccc4OC(C)(C)[C@H]3O)c2)C(=N)N1 (stereo in doubt) [Example 148, [4,4-diethyl-1-[[3-fluoro-5-[(6-fluoro-3-hydroxy-2,2-dimethyl-chroman-4-yl)carbamoyl]phenyl]methyl]-6-oxo-hexahydropyrimidin-2-ylidene]ammonium; 2,2,2-trifluoroacetate] | 1 | 
